Here are results for one compound from patent US20210161130A1, “COMPOSITIONS FOR ATTRACTING PESTS AND USES THEREOF” (DOMOBIOS, priority 2018, published 2021).

Holding throughout (assay type): in vivo
The test system of experiment [1] is Tyrophagus putrescentiae. Briefly: Two-choice bioassay (filter paper rectangles), attraction of mites. The protocol:
(§1) A composition comprising menthone was prepared by diluting liquid menthone with a density of 0.894 (mixture of stereoisomers L-menthone and D-isomenthone, with 98% purity, from Alfa Aesar, Haverhill, USA) in water to obtain a concentration of 0.1 μl/mL (i.e., 10^−4 L/L), corresponding to a concentration of about 0.0894 mg/mL or a concentration of about 0.00894% (w/v). Said composition has a molar concentration of menthone of about 0.58 mM.
(§2) Compositions comprising menthone at different concentrations were prepared by serial dilutions in water of the composition comprising menthone at 10^−4 L/L (from 10^−4 L/L to 10^−8 L/L, i.e., from about 0.0894 mg/mL to about 8.94 ng/mL) and their capacity to attract acarids was tested.
(§3) A composition comprising peppermint oil (also known as essential oil of Mentha piperita), which itself comprises menthone, was prepared by diluting peppermint oil with a density of 0.898 g/mL (natural peppermint oil from Mentha piperita L., Sigma, St Louis, USA) in water to obtain a concentration of 0.1 μl/mL (i.e., 10^−4 L/L), corresponding to a concentration of about 0.0898 mg/mL or a concentration of about 0.00898% (w/v). Compositions comprising peppermint oil at different concentrations were prepared by serial dilutions in water of the composition comprising peppermint oil at 10^−4 L/L (from 10^−4 L/L to 10^−6 L/L, i.e., from about 0.0898 mg/mL to about 0.898 μg/mL) and their capacity to attract acarids was tested.
The experimental protocol was inspired by the quantitative choice bioassay run by Synder et al., in 1993. Said bioassay consisted of two rectangles of filter paper of equal dimensions, positioned so as to be parallel to each other and less than 2 cm apart in a petri dish with a 6 cm diameter. 10 μL microliters of the composition comprising menthone, either alone (i.e., isolated) or within peppermint oil, were loaded on one rectangle and 10 μL of solvent (i.e., water) were loaded on the other as a control. After the solvent evaporated, a small strip of filter paper was used to bridge the rectangles. A group of 30-40 mites was then transferred to the middle of the bridge and their movements were observed. The rectangle for which they exited the bridge was recorded. Each assay comprised two sets of rectangles of filter paper connected with a bridge, with the composition comprising menthone, either alone (i.e., isolated) or within peppermint oil, loaded on opposing rectangles in each set (e.g., rectangle on the left in the first set, and rectangle on the right in the second set). Data were submitted to Fisher analysis.
(§4) Statistical significance was assessed using a Fisher's exact test.

The subject of experiment [2] is Dermatophagoides farinae. Briefly: Two-choice bioassay (vegetable fiber support discs), attraction of mites. How it is done:
as §1, §2, §3
(§5) Responses of Dermatophagoides spp. to compositions comprising menthone, either alone (i.e., isolated) or within peppermint oil, were tested in a two-choice bioassay as described in Otieno et al., 1985. Said bioassay comprised two support discs made of vegetable fiber (with a diameter of 1.7 cm), i.e., a test support and a control support, placed in a Petri dish (with a diameter of 6 cm) kept at 20-28° C. in the dark at 30% humidity. Compositions comprising menthone, either alone (i.e., isolated) or within peppermint oil, (50 μL or less) were applied via a syringe to the test support. The control support was loaded with water only. An appropriate number of mites were placed in the center of the dish, equidistant from the test support and the control support. The bioassay system was then left for 24 hr or less at 20-28° C. in the dark at 30% humidity before a count of the mites assembled on the test support and on the control support was made. Several replicates were run for each test.
as §4

Experiment [3] concerns Dermatophagoides pteronyssinus. The experiment is described as above. How it is done: as §1, §2, §3, §5, §4
Experiment [4] concerns Dermatophagoides farinae. The experiment in a line: Simulated use test, infested cushion covered with sprayed sheet. The note with it: menthone 10^−6 L/L, 6 sprays on sheet, 1 h, cushion infested with three mite species, N = 3. How it is done:
(§6) A composition comprising menthone at a concentration of 10^−6 L/L was prepared by diluting 1 μL liquid menthone as described hereinabove (mixture of stereoisomers L-menthone and D-isomenthone, with 98% purity, from Alfa Aesar, Haverhill, USA) in 1 L of water. Hereafter, said composition is referred to as “compositions comprising menthone alone” or “compositions comprising menthone”.
(§7) A composition comprising peppermint oil at a concentration of 10^−5 L/L was prepared by diluting 10 μL peppermint oil (natural peppermint oil from Mentha piperita L., Sigma, St Louis, USA) as described hereinabove in 1 L of water. Hereafter, said composition is referred to as “composition comprising menthone within peppermint oil” or “composition comprising peppermint oil”.
(§8) In order to simulate real-life utilization of the composition for attracting pests of the invention, a common household furniture such as a cushion was infested with living mites and treated with a composition comprising menthone at a concentration of 10^−6 L/L (corresponding to a concentration of menthone of about 9×10^−4 mg/mL) or with a composition comprising peppermint oil at a concentration of 10^−5 L/L (corresponding to a concentration of peppermint oil of about 9×10^−3 mg/mL). As described in Japanese application JP2000336007 and in U.S. Pat. No. 6,415,545, the treatment consisted in laying a sheet on the infested household furniture and spraying the compositions to be tested over it. The number of attracted and unattracted mites was then counted to evaluate the efficacy of the tested composition. All the tests were run at 20-25° C. and 30-35% relative humidity, conditions normally found in households.
(§9) Brand new cushions (43×30×6 cm, Tom&Co) were infested with 400 Tyrophagus putrescentiae, 100 Dermatophagoides farinae and 100 Dermatophagoides pteronyssinus. The proportion of each species respected the average composition of natural mite populations that can be found in a pet basket: ⅔ of storage mites, ⅓ of house dust mites. Small pieces of dry dog food were spread over the cushions as a nourishment for mites. After the infestation, mites were allowed to settle down for 15 hours.
(§10) After 15 hours, a dark sheet was placed over the cushion to be treated. The size of the sheet was sufficient to cover the entire upper surface of the cushion (43×30 cm). The sheet was sprayed 6 times (total volume sprayed about 4 ml) with a composition comprising menthone, either alone (i.e., isolated) or within peppermint oil, or with water (control), keeping the bottle at a distance of about 30 cm from the sheet to be sprayed. A dry control was also used, corresponding to an untreated sheet, i.e., a sheet that was not sprayed. Sprays were evenly distributed in order to cover the totality of the sheet. The sheet was left in place for 1 h. 3 replicates were run with the composition comprising menthone, either alone (i.e., isolated) or within peppermint oil, and 3 replicates were run with the control.
(§11) In order to determine the number of mites within an infested place, the usual method is to vacuum the infested place (Wassenaar 1988). Each sheet was vacuumed for 2 minutes using a special filter (as described in the European patent application EP0630478) that retains the collected dust. The dust sample was then analyzed (see Step 4) in order to determine the number of mites attracted by the composition comprising menthone, either alone (i.e., isolated) or within peppermint oil. Similarly, after removal of the sheet, each cushion was vacuumed to determine the number of remaining mites (i.e., the number of mites that were not attracted by the composition comprising menthone, either alone (i.e., isolated) or within peppermint oil). The relative proportion of mites into the sheet and into the cushion determined the efficacy of the treatment (see Step 4). […]

In experiment [5] the test system is Dermatophagoides pteronyssinus. The experiment is described as above. The note with it: menthone 10^−6 L/L, 6 sprays on sheet, 1 h, cushion infested with three mite species, N = 3. How it is done: as §6, §7, §8, §9, §10, §11
Experiment [6] has as its system Total number of mites. The description is as above. How it is done:
as §6, §7, §8, §9, §10, §11

For experiment [7], the system named is Tyrophagus putrescentiae. Described as above. The note with it: menthone 10^−6 L/L, 6 sprays on sheet, 1 h, cushion infested with three mite species, N = 3. How it is done:
as §6, §7, §8, §9, §10, §11

Setting [8] is: composition comprising menthone 10^−4 L/L in water vs water.
[9] abbreviates: composition comprising menthone 10^−5 L/L in water vs water.
[10] abbreviates: composition comprising menthone 10^−6 L/L in water vs water.
Setting [11] is: composition comprising menthone 10^−7 L/L in water vs water.
Setting [12] is: composition comprising menthone 10^−8 L/L in water vs water.

As to `CC1CCC(C(C)C)C(=O)C1` (stereo not shown) [menthone], the Mean efficiency is 50% in experiment [1] (setting [8]); 47% in experiment [1] (setting [9]); 57% in experiment [1] (setting [10]); 53% in experiment [1] (setting [11]); 49% in experiment [1] (setting [12]); 41% in experiment [2] (setting [8]). The Mean efficiency in experiment [2] (setting [9]) is 40%; in experiment [2] (setting [10]), 62%; in experiment [2] (setting [11]) it was 49%; in experiment [2] (setting [12]), 51%; in experiment [3] (setting [8]), 42%; in experiment [3] (setting [9]) it was 50%. For the same compound, the figures for the Mean efficiency in experiment [3] (setting [10]) and in experiment [3] (setting [11]) were 67% and 42%, respectively. Moreover, the “Efficacy (mites attracted out of the cushion)” value in experiment [4] is given as 47%; in experiment [4] (listed as Menthone) it was 47% (±6%); in experiment [5] it was 44%; in experiment [5] (listed as Menthone), 44%; in experiment [6] (menthone 10^−6 L/L, 6 sprays on sheet, 1 h, cushion infested with three mite species, N = 3), 54% (±5%); in experiment [7], 69%. In addition, the “Efficacy (mites attracted out of the cushion)” value in experiment [7] (listed as Menthone) is on record as 69% (±8%). The “more mites attracted out of the infested cushion compared to the control” value in experiment [6] (menthone 10^−6 L/L vs water control, Fisher's exact test, p-value=0.0006) is 21%.
